Assay results taken from patent publication US20050209278A1, “Piperidinyl- and piperazinyl-sulfonylmethyl hydroxamic acids and their use as protease inhibitors” (priority 2002, published 2005).
Read-outs that look alike come from different tables or passages of the source.

Target: T1, MMP-2 (Homo sapiens, UniProt P08253)
T1 construct: made in house; host or cells: MMP-2-transfected p2AHT2 cells
T1 sequence (P08253 110-660): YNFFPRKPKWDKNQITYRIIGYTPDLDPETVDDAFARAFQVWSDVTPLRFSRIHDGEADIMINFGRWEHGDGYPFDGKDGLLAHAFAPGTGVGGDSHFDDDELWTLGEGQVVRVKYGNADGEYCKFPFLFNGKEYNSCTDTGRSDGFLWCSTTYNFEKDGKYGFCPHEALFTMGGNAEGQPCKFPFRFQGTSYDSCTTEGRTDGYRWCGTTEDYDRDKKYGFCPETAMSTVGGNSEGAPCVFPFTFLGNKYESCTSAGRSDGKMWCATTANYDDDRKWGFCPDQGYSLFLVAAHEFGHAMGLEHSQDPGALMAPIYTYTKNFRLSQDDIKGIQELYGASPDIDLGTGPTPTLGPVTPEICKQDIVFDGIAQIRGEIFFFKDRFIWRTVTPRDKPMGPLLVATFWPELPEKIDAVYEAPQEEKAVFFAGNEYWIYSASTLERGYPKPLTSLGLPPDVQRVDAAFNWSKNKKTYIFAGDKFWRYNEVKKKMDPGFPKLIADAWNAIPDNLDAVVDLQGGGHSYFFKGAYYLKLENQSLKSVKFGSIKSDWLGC
Assay: In vitro MMP inhibition, IC50 determination (fluorogenic substrate I)
Format: biochemical
Details: read-out: MMP-2 (IC-50)

`CCOCCCc1ccc(N2CCN(S(=O)(=O)C3(C(=O)NO)CCN(CCOC)CC3)CC2)cc1` [Example 179] showed an IC50 (value in parenthesis) of 1.02 nM.
`COCCCc1ccc(N2CCN(S(=O)(=O)C3(C(=O)NO)CCN(CCOC)CC3)CC2)cc1` [Example 180] gave an IC50 (value in parenthesis) of 2.14 nM.
In the case of `CCC(CC)Cc1ccc(N2CCN(S(=O)(=O)C3(C(=O)NO)CCN(CCOC)CC3)CC2)cc1` [Example 188], the IC50 (value in parenthesis) is reported as 12.4 nM.
With `COCCN1CCC(C(=O)NO)(S(=O)(=O)N2CCN(c3ccc(CCC4CCCC4)cc3)CC2)CC1` [Example 182] the IC50 (value in parenthesis) was 0.12 nM.
`CCc1cnc(N2CCN(S(=O)(=O)C3(C(=O)NO)CCN(CCOC)CC3)CC2)nc1` [Example 187] was tested, and the IC50 (value in parenthesis) was 78 nM.
For `COCCN1CCC(C(=O)NO)(S(=O)(=O)N2CCN(c3ccc(CC4CCC4)cc3)CC2)CC1` [Example 183], the IC50 (value in parenthesis) was 2.31 nM.
`COCCN1CCC(C(=O)NO)(S(=O)(=O)N2CCN(c3ccc(CC4CCCCC4)cc3)CC2)CC1` [Example 181] showed an IC50 (value in parenthesis) of 10.2 nM.
`CCCCOc1ccc(N2CCN(S(=O)(=O)C3(C(=O)NO)CCN(C(=O)CCC)CC3)CC2)cc1` [Example 290] was tested, and the IC50 (value in parentheses) was 59.5 nM.
`CCOc1ccc(N2CCN(S(=O)(=O)C3(C(=O)NO)CCN(CCOC)CC3)CC2)cc1F` [Example 184] was tested, and the IC50 (value in parenthesis) was 0.65 nM.
For `CCCOc1ccc(N2CCN(S(=O)(=O)C3(C(=O)NO)CCN(CCOC)CC3)CC2)cc1F` [Example 185], the IC50 (value in parenthesis) was 0.59 nM.
`COCCN1CCC(C(=O)NO)(S(=O)(=O)N2CCN(c3ccc(C#N)cc3)CC2)CC1` [Example 186] gave an IC50 (value in parenthesis) of 3.14 nM.
